# pEC50: −log10 of the molar value. Several values for one entry are separate records, joined by “and”; a condition that tells them apart may be missing. Equal entries are not always repeated. Where two headings read alike, the source gives them in different places.
# Tests used:
# male Sprague-Dawley rats = assay: Reversal of amphetamine-induced hyperlocomotion; format: in vivo, rat; conditions: oral gavage, doses per FIG. 4; amphetamine 1 mg/kg sc
# Procedure: Locomotor activity was assessed as mean distance traveled (cm) in standard 16×16 photocell testing chambers measuring 43.2 cm (Length)×43.2 cm (Width)×30.5 cm (Height) (Med Associates, St. Albans, Vt.). Animals were habituated to individual activity chambers for at least 30 min prior to drug administration. Following administration of drug or vehicle, activity was recorded for a 90 minute time period. Data was expressed as the mean (±SEM) distance traveled recorded in 5 min intervals over the test period. The data was analyzed using repeated measures analysis of variance (ANOVA) followed by post-hoc testing using Dunnett's test, when appropriate. A difference was considered significant when p≦0.05. […]
# The animals were habituated in Smart Open Field locomotor activity test chambers (Hamilton-Kinder, San Diego, Calif.) with 16×16 photobeams to automatically record locomotor activity for 30 min and then dosed with vehicle or test compound. […] At 60 min, all rats were injected subcutaneously with 1 mg/kg amphetamine or vehicle and then monitored for an additional 60 min. Animals are monitored for a total of 120 minutes. Data are expressed as changes in ambulation defined as total number of beam breaks per 5 min periods.
# The data for the dose-response studies were analyzed by a between-group analysis of variance. […]
# human mGluR5a receptor = molecular target: T1, human mGluR5a receptor (Homo sapiens, UniProt P41594); assay: Cell-based functional Ca2+ mobilization assay (FDSS), potentiation of glutamate EC20 response; conditions: for pEC50 / EC50: HEK cells transfected with human mGluR5 (H10H or H12H), in presence of EC20 glutamate; for pEC50: read-out: EC50; for EC50: read-out: pEC50 (converted)
# T1 construct: cDNA subcloned into pcDNA3.1(-)
# Procedure, shortened: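 HEK293A cells stably expressing human mGluR5a (H10H or H12H clones), plated overnight in glutamate-glutamine-free medium, loaded with Ca2+-sensitive dye (e.g. Fluo-4) and read on FDSS.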
# [1] = maximum % effect in concentration-response curve, as percent of response to maximally effective glutamate
# T1 sequence (P41594 21-1180 isoform P41594-2 limits assumed): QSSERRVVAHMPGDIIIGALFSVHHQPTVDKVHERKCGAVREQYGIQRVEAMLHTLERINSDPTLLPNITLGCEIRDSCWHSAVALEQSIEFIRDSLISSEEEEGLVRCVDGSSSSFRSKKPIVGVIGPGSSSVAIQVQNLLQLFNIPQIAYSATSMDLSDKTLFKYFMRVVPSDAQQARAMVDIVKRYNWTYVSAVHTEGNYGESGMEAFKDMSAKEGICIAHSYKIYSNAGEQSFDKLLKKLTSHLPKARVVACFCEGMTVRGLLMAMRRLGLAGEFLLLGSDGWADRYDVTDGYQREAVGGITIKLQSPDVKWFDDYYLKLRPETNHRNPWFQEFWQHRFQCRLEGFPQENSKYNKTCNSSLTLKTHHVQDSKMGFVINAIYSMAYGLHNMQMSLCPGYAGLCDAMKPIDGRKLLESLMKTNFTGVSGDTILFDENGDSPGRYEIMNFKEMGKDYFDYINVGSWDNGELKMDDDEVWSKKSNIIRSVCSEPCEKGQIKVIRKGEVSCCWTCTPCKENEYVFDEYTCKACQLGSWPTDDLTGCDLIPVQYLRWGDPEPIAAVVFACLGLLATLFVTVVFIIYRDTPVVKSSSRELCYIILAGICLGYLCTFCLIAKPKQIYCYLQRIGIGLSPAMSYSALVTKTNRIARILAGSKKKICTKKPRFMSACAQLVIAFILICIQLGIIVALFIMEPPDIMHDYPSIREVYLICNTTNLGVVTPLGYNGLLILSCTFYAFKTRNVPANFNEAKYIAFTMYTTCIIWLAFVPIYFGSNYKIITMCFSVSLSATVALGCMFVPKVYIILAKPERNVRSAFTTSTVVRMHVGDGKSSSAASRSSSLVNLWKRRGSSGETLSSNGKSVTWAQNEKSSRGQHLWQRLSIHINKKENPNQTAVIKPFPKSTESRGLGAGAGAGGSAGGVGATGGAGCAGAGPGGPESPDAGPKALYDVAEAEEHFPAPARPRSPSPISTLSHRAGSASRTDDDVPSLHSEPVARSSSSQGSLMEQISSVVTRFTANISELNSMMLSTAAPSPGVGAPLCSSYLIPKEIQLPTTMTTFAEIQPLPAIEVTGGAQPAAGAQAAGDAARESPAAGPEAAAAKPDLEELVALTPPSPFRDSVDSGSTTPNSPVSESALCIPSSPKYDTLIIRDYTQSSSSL
SMILES,reversal of amphetamine-induced hyperlocomotion (male Sprague-Dawley rats),pEC50 (human mGluR5a receptor),Emax (human mGluR5a receptor; [1]) [%],melting point [°C],EC50 (human mGluR5a receptor),Emax (%) (human mGluR5a receptor; [1])
O=C1c2cc(COc3ccccc3)nn2CCN1c1ccc(F)cn1,reversal of amphetamine-induced hyperlocomotion,,,,,
N#Cc1ccnc(OCc2cc3n(n2)CCN(c2ccc(F)cc2)C3=O)c1 [Example 193],,6.36,53,202.6,,
O=C1c2cc(COc3ncccn3)nn2CCN1c1ccc(F)cc1 [Example 194],,< 5.00,50,179.5,,
COc1ccnc(OCc2cc3n(n2)CCN(c2ccc(F)cc2)C3=O)c1 [Example 195],,< 5.00,40,> 300,,
O=C1c2cc(COc3cnccn3)nn2CCN1c1ccc(F)cc1 [Example 197],,< 5.00,58,144.8,,
Cc1cncc(OCc2cc3n(n2)CCN(c2ccc(F)cc2)C3=O)n1 [Example 200],,< 4.52,21,156.6,,
COc1cc(N2CCn3nc(COc4ccccn4)cc3C2=O)ccc1F [Example 204],,6.39,69,143.9,,
Cc1cccc(N2CCn3nc(COc4ccccn4)cc3C2=O)n1 [Example 206],,5.82,67,109.8,,
Cc1ccc(N2CCn3nc(COc4ccccn4)cc3C2=O)cc1 [Example 218],,6.33,69,> 300,,
COc1cccc(N2CCn3nc(COc4ccc(F)cc4)cc3C2=O)c1 [Example 220],,6.46,63,130.4,0.355 µM,
COc1ccccc1N1CCn2nc(COc3ccc(F)cc3)cc2C1=O [Example 221],,6.72,66,117.3,,
Cc1ccccc1N1CCn2nc(COc3ccc(F)cc3)cc2C1=O [Example 223],,7.01,63,148.2,0.1 µM,
COc1ncccc1N1CCn2nc(COc3ccc(F)cc3)cc2C1=O [Example 229],,6.42,66,267.4,,
N#Cc1cccc(OCc2cc3n(n2)CCN(c2ccc(F)cn2)C3=O)c1 [Example 233],,6.28,54,181.3,,
CC1CN(c2ccc(F)cc2)C(=O)c2cc(COc3cccc(C#N)c3)nn21 (centres unmarked) [Example 241],,< 4.52,21,110.2,,
Cc1cccc(OCc2cc3n(n2)C(C)CN(c2ccc(F)cc2)C3=O)c1 (centres unmarked) [Example 242],,< 4.52,21,70.2,,
CNc1nc(N2CCn3nc(COc4ccccc4)cc3C2=O)ncc1F [Example 279],,6.65,69,176.6,,

SMILES,reversal of amphetamine-induced hyperlocomotion (male Sprague-Dawley rats),pEC50 (human mGluR5a receptor),Emax (human mGluR5a receptor; [1]) [%],melting point [°C],EC50 (human mGluR5a receptor),Emax (%) (human mGluR5a receptor; [1])
CN(C)c1cncc(N2CCn3nc(COc4ccccc4)cc3C2=O)n1 [Example 280],,6.45,70,215.1,,
CN(C)c1ccnc(N2CCn3nc(COc4ccccc4)cc3C2=O)c1 [Example 282],,5.96,64,190.2,,
CN(C)c1cccc(N2CCn3nc(COc4ccccc4)cc3C2=O)n1 [Example 286],,7.52,76,143.7,0.0363 µM and 0.0295 µM,69
CN(C)c1ccc(N2CCn3nc(COc4ccccc4)cc3C2=O)nc1 [Example 287],,6.22,67,164.8,,
Cc1ccc(N(C)C)nc1N1CCn2nc(COc3ccccc3)cc2C1=O [Example 291],,7.27,63,117.9,,
Cc1cc(F)cc(N2CCn3nc(COc4ccccc4)cc3C2=O)c1 [Example 297],,7.12,71,116.3,,
COc1cc(F)cc(N2CCn3nc(COc4ccccc4)cc3C2=O)c1 [Example 299],,6.96,64,127.8,,
O=C1c2cc(COc3ccccc3)nn2CCN1c1nccc(N2CCCC2)n1 [Example 309],,5.45,56,143.2,,
CN(C)c1cccc(OCc2cc3n(n2)CCN(c2ccc(F)cc2)C3=O)n1 [Example 310],,< 4.52,26,153.8,,
CN(C)c1ccnc(OCc2cc3n(n2)CCN(c2ccc(F)cc2)C3=O)c1 [Example 312],,< 4.52,25,> 300,,
CN(C)c1cccc(N2CCn3nc(COc4cccc(F)c4)cc3C2=O)n1 [Example 316],,,74,121.2,0.0407 µM,
COc1nc(N2CCn3nc(COc4ccc(F)cc4)cc3C2=O)ncc1F [Example 318],,6.62,72,> 300,,
Cc1ccc(N2CCn3nc(COc4ccccc4)cc3C2=O)s1 [Example 319],,,68,194.5,0.0288 µM,
Cn1cnc(N2CCn3nc(COc4ccccc4)cc3C2=O)c1 [Example 321],,< 4.52,23,203.7,,
COc1cnc(N2CCn3nc(COc4ccccc4)cc3C2=O)nc1 [Example 353],,6.55,61,266.9,,
O=C1c2cc(COc3ccc(O)cc3)nn2CCN1c1ccc(F)cn1 [Example 355],,5.44,55,212.7,,

# — patent publication US8592422B2, “Bicyclic triazole and pyrazole lactams as allosteric modulators of mGluR5 receptors” (Vanderbilt University, priority 2010, dated 2013)
